# Where “and” joins values, the source holds several entries; their conditions need not be identical. Identical values can stand only once. Like-named read-outs stand apart in the source and are kept apart here.
# Experiments:
# Aβ(1–42) aggregates = target: T1, Aβ(1–42) aggregates (Homo sapiens, UniProt P05067); assay: In vitro binding assay using Aβ(1–42) aggregates (intrinsic fluorescence of the ligands); details: Aβ(1–42) aggregates 1 μM, PBS, 37 °C, 1 h, ligand fluorescence
# T1 construct: β-Amyloid(1–42) peptide was purchased from Bachem; purchased Bachem (Torrance, CA, USA)
# Experimental: Binding constants of the ligands for Aβ(1–42) aggregates were determined using the intrinsic fluorescence of the ligands. The binding constant of CRANAD-2 was also measured for comparison. […] Considering the Kd values and feasibility of ^18F-labeling of all the ligands, ligand 2 was selected for further in vitro and in vivo studies.
# Aβ(1–42) aggregates were prepared as described in the literature. Briefly, Aβ(1–42) peptide (200 μM) was dissolved in PBS and stirred gently at 37 °C for 2 d. The Aβ(1–42) aggregate formation was confirmed by thioflavin-T fluorescence assay. In vitro binding assays were carried out using the methods described in the literature with some modifications. Various concentrations of ligands (10–400 nM) were dissolved in DMSO, which were then added to PBS solutions of Aβ(1–42) aggregates (1 μM) charged in 96-well black clear-bottom plates. The final concentration of DMSO in a total volume of solution was 1%. Non-specific binding was determined in the absence of Aβ(1–42) aggregates. The reaction mixtures were incubated at 37 °C for 1 h, after which the fluorescence spectra of the ligands were obtained (excitation 510–560 nm and emission 590–660 nm) using a monochromator multimode microplate reader. All experiments were performed in triplicate. Kd values were determined using GraphPad Prism software 5.
# Aβ(1–40) aggregates = target: Aβ(1–40) aggregates; parameters: method as in PMID 19807070; details: cited from earlier work
# [1] = parameters: method as in PMID 19807070; details: cited from earlier work
# [2] = parameters: method as in PMID 19807070; details: cited from earlier work; remark: listed apart in the source
# [3] = Excitation and emission spectra; format: physicochemical; details: methanol, 2.5 μM
# Experimental: Despite this, ligand 2 has sufficient red-shifted emission for optical imaging.
# Ligand 2 was dissolved in methanol (2.5 μM), and its excitation and emission spectra were obtained using a Mithras[2] LB 943 monochromator multimode microplate reader (Berthold Technologies, Bad Wildbad, Germany).
# Aβ plaques = Aβ plaques (Homo sapiens, UniProt P05067); assay: Fluorescent staining of Aβ plaques in mouse brain sections; parameters: species or system double transgenic mouse (Tg APP/PS-1)
# Experimental: Fluorescent staining of Aβ plaques by 2 was performed using the brain sections from a double transgenic mouse (Tg APP/PS-1). Localization of the Aβ plaques was confirmed by immunofluorescent staining the adjacent brain sections from the transgenic mouse with an anti-Aβ antibody (Fig. 6). The Aβ plaques in the cerebral cortex and hippocampus regions of the transgenic mouse brain sections were stained with 2 (Fig. 6a–c). The staining pattern was consistent with that observed with an Aβ-specific antibody (Fig. 6d–f).
# Figure 6 A double transgenic mouse brain section (a–c) and an age-matched wild-type mouse brain section (g–i) stained with 2. The adjacent double transgenic mouse brain section (d–f) and age-matched wild-type mouse brain section (j–l) stained with an Aβ-specific antibody. Magnification of the regions in white boxes (c,f,i and l). Scale bars: 100 μm (c,f,i and l) and 200 μm (the rest).
# A double transgenic mouse (APP/PS1, male, 18 months old) was transcardially perfused with PBS, followed by 10% neutral buffered formalin (NBF) under anesthesia. The brain was then immediately removed from skull and post-fixed in 10% NBF for 24 h. The hippocampus and cerebral cortex regions were sliced using brain matrix, embedded in paraffin, and sectioned serially into 4 μm thickness. Brain sections from an age-matched wild-type mouse (male) were obtained as described above. […]
# [4] = Metabolism study of 2 (TLC with fluorescence detection of brain homogenates); format: in vivo, Balb/C nude mice
# Experimental: In order to further investigate the metabolites of [^18F]2, metabolism study of 2 was also performed; the brain homogenates were analyzed by TLC, followed by fluorescence detection.
# After ex vivo optical imaging, the brain tissues were homogenized in 1 mL of acetonitrile and centrifuged. The supernatants were analyzed by TLC using a 4:1 mixture of ethyl acetate–hexane as the developing solvents, and the TLC plates were subjected to optical imaging for 1 sec (excitation, 570 nm; emission, 660 nm).
# [5] = Partition coefficient measurement (1-octanol/water); format: physicochemical; details: 1-octanol and water
# Experimental: Difluoroboron complex formation lowered the lipophilicity of the curcumin derivative based on TLC analysis.
# Partition coefficient of [^18F]2 was measured according to the method described in the literature. [^18F]2 was dissolved in 1-octanol (1 mL) and diluted with water (1 mL). The solution was vortexed vigorously for 5 min and then centrifuged. The 1-octanol and aqueous layers were separated out, and a 500-μL aliquot of each layer was removed and measured using a gamma counter. Samples from the 1-octanol and aqueous layers were repartitioned until consistent values were obtained. The log P is expressed as the logarithm of the ratio of the counts per minute of 1-octanol versus that of water.
# [6] = In vitro stability in PBS and FBS (radio-TLC); format: in vitro ADME; details: for remaining at 2 h: 37 °C, 120 min, radio-TLC, read-out: % remaining radioligand
# Experimental: Stability study was performed by incubating [^18F]2 in phosphate-buffered saline (PBS) and in fetal bovine serum (FBS) at 37 °C for 120 min.
# Data are presented as % remaining radioligand.
# [^18F]2 (21.5 MBq) was dissolved in a minimal volume of 10% ethanol–saline and incubated with PBS or 50% FBS (Gibco, Brooklyn, NY, USA) at 37 °C for 120 min. Aliquots were taken from the incubation solution after 0, 2, 30, 60, and 120 min. The aliquots were analyzed using a radio-TLC scanner.
# [7] = Metabolism study of [^18F]2 (radio-TLC of brain homogenates and blood); format: in vivo, ICR mice; details: brain homogenate, 2 min after injection
# Experimental: However, the radioligand disappeared almost entirely, and the new polar radioactive peaks appeared at the origin of radio-TLC at 30 and 60 min after injection (82% and 100%, respectively; Fig. 9c,d). The radioligand also disappeared in the blood samples, but at a rate slower than that of the brain samples (Fig. 9f–h). The polar radioactive products were further analyzed by radio-TLC using a polar developing solvent system, and the polar products moved toward the solvent front. […] Moreover, the polar products were not adsorbed onto calcium phosphate (7% in calcium phosphate pellet vs. 93% in supernatant), which is a component of the bone matrix.
# Figure 9 Radio-TLC analysis of the brain homogenates and blood samples obtained at 2, 30, and 60 min after injection of [^18F]2 into ICR mice. […] The 60-min samples (d and h) were further analyzed by radio-TLC using a 1:1:0.01 mixture of dichloromethane–methanol–triethylamine as the developing solvents (e and i). TLC analysis followed by fluorescence detection of the brain homogenates obtained at 2, 30, and 60 min after injection of 2 into Balb/C nude mice (j). […]
# [^18F]2 (19.6 MBq) dissolved in 10% ethanol–saline was injected into ICR mice via a tail vein. […] The supernatants were analyzed by radio-TLC using a 4:1 mixture of ethyl acetate–hexane or a 1:1:0.01 mixture of dichloromethane–methanol–triethylamine as the developing solvents.
# Biodistribution study = format: in vivo; details: ICR mice, i.v.
# Experimental: However, there was poor brain uptake at 2 min after injection with increased uptake over time, as follows: 0.49 ± 0.02% ID/g at 2 min, 1.02 ± 0.08% ID/g at 30 min, and 1.19 ± 0.06% ID/g at 60 min (Table 1).
# ICR mice (male, 7-week-old, four mice per time point) were injected with [^18F]2 (1.85 MBq) dissolved in 10% ethanol–saline via a tail vein. Mice were sacrificed at the indicated time points (2, 30, and 60 min). Samples of blood and major tissues (heart, lung, liver, spleen, kidney, intestines, muscle, femur, and brain) were removed, weighed, and counted in a Wizard[2] automatic gamma counter (PerkinElmer, Waltham, MA, USA). Data are expressed as the percent injected dose per gram of tissue (% ID/g).
# HIV-1 protease = tested on: HIV-1 protease; parameters: method as in PMID 8087563; details: cited from earlier work
# T1 sequence (P05067 672-713): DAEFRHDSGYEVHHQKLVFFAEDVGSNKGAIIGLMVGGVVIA
# Sequence of Aβ plaques (P05067 672-711 limits assumed): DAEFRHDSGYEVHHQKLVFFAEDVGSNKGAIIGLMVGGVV
smiles,measurement,setting,value
CN(C)c1ccc(/C=C/C2=CC(/C=C/c3ccc(N(C)C)cc3)=[O+][B-](F)(F)O2)cc1 [CRANAD-2],Kd,Aβ(1–42) aggregates,19.4 nM
same,Kd,Aβ(1–40) aggregates,38.7 nM and 38 nM
same,stability in serum,[1],stability in the serum
same,blue shift when binding to the Aβ aggregates,[2],90 nm
same,emission,[2]; in methanol,760 nm
"CNc1ccc(/C=C/C2=[O+][B-](F)(F)OC(/C=C/c3ccc(OCCOCCF)cc3)=C2)cc1 [Ligand 1, BF2 complex of 4′-monomethylamino-4″-(2-(2-fluoroethoxy)ethoxy)curcuminoid]",Kd,Aβ(1–42) aggregates,33.8 nM
"CN(C)c1ccc(/C=C/C2=[O+][B-](F)(F)OC(/C=C/c3ccc(OCCOCCF)cc3)=C2)cc1 [Ligand 2, BF2 complex of 4′-dimethylamino-4″-(2-(2-fluoroethoxy)ethoxy)curcuminoid]",Kd,Aβ(1–42) aggregates,19.7 nM
same,emission,[3],650 nm
same,excitation,[3],550 nm
same,staining of Aβ plaques,"Aβ plaques; Tg APP/PS-1 mouse brain sections, cerebral cortex and hippocampus, 100 μM, 10 min",stained
same,staining of brain sections,Aβ plaques; age-matched wild-type mouse brain sections,no notable positive staining
same,fluorescent spot of 2 on TLC of brain homogenate,[4]; 2-min sample,a fluorescent spot was detected
same,fluorescent spot of 2 on TLC of brain homogenate,[4]; 30- and 60-min samples,did not appear
"COc1cc(/C=C/C2=[O+][B-](F)(F)OC(/C=C/c3ccc(OCCOCCF)c(OC)c3)=C2)ccc1O [Ligand 3, BF2 complex of 4′-(2-(2-fluoroethoxy)ethoxy)curcuminoid]",Kd,Aβ(1–42) aggregates,138 nM
"CN(C)c1ccc(/C=C/C2=[O+][B-](F)(F)OC(/C=C/c3ccc(OCC(O)CF)cc3)=C2)cc1 (stereo not drawn) [Ligand 4, BF2 complex of 4′-dimethylamino-4″-(3-fluoro-2-hydroxypropoxy)curcuminoid]",Kd,Aβ(1–42) aggregates,15.3 nM
CN(C)c1ccc(/C=C/C2=[O+][B-](F)(F)OC(/C=C/c3ccc(OCCOCC[18F])cc3)=C2)cc1 [[^18F]2],logP,[5],2.58 ± 0.04
same,remaining at 120 min,"[6]; bovine, PBS and fetal bovine serum (50%), both PBS and FBS, read-out: % remaining radioligand (stable in both PBS and FBS)",> 83%
same,remaining at 2 h,"[6]; bovine, fetal bovine serum (50%), FBS (50% FBS in method)",83%
same,remaining at 2 h,"[6]; phosphate-buffered saline, PBS",89%
same,[^18F]2 remaining in the brain,[7],84%
same,"Biodistribution, Blood",Biodistribution study; 2 min,1.49 ± 0.12 % ID/g
same,"Biodistribution, Brain",Biodistribution study; 2 min,0.49 ± 0.02 % ID/g
same,"Biodistribution, Femur",Biodistribution study; 2 min,0.58 ± 0.10 % ID/g
same,"Biodistribution, Heart",Biodistribution study; 2 min,2.20 ± 0.57 % ID/g
same,"Biodistribution, Kidney",Biodistribution study; 2 min,3.25 ± 0.48 % ID/g
same,"Biodistribution, Large intestine",Biodistribution study; 2 min,0.24 ± 0.05 % ID/g
same,"Biodistribution, Liver",Biodistribution study; 2 min,26.92 ± 1.58 % ID/g
same,"Biodistribution, Lung",Biodistribution study; 2 min,3.56 ± 0.25 % ID/g
same,"Biodistribution, Muscle",Biodistribution study; 2 min,0.49 ± 0.19 % ID/g
same,"Biodistribution, Small intestine",Biodistribution study; 2 min,0.92 ± 0.13 % ID/g
same,"Biodistribution, Spleen",Biodistribution study; 2 min,12.59 ± 2.42 % ID/g
same,"Biodistribution, Blood",Biodistribution study; 30 min,2.50 ± 0.22 % ID/g
same,"Biodistribution, Brain",Biodistribution study; 30 min,1.02 ± 0.08 % ID/g
same,"Biodistribution, Femur",Biodistribution study; 30 min,0.91 ± 0.13 % ID/g
same,"Biodistribution, Heart",Biodistribution study; 30 min,1.93 ± 0.19 % ID/g
same,"Biodistribution, Kidney",Biodistribution study; 30 min,4.11 ± 0.46 % ID/g
same,"Biodistribution, Large intestine",Biodistribution study; 30 min,0.95 ± 0.11 % ID/g
same,"Biodistribution, Liver",Biodistribution study; 30 min,14.21 ± 1.39 % ID/g
same,"Biodistribution, Lung",Biodistribution study; 30 min,2.62 ± 0.29 % ID/g
same,"Biodistribution, Muscle",Biodistribution study; 30 min,0.97 ± 0.11 % ID/g
same,"Biodistribution, Small intestine",Biodistribution study; 30 min,6.47 ± 1.63 % ID/g
same,"Biodistribution, Spleen",Biodistribution study; 30 min,11.66 ± 2.70 % ID/g
same,"Biodistribution, Blood",Biodistribution study; 60 min,3.46 ± 0.81 % ID/g
same,"Biodistribution, Brain",Biodistribution study; 60 min,1.19 ± 0.06 % ID/g
same,"Biodistribution, Femur",Biodistribution study; 60 min,1.43 ± 0.14 % ID/g
same,"Biodistribution, Heart",Biodistribution study; 60 min,1.87 ± 0.20 % ID/g
same,"Biodistribution, Kidney",Biodistribution study; 60 min,2.58 ± 0.15 % ID/g
same,"Biodistribution, Large intestine",Biodistribution study; 60 min,2.16 ± 0.42 % ID/g
same,"Biodistribution, Liver",Biodistribution study; 60 min,9.36 ± 0.18 % ID/g
same,"Biodistribution, Lung",Biodistribution study; 60 min,2.34 ± 0.50 % ID/g
same,"Biodistribution, Muscle",Biodistribution study; 60 min,0.87 ± 0.05 % ID/g
same,"Biodistribution, Small intestine",Biodistribution study; 60 min,14.92 ± 4.06 % ID/g
same,"Biodistribution, Spleen",Biodistribution study; 60 min,10.72 ± 2.45 % ID/g
COc1cc(/C=C/C2=CC(/C=C/c3ccc(O)c(OC)c3)=[O+][B-](F)(F)O2)ccc1O [difluoroboron-curcumin],IC50,HIV-1 protease,24000 nM
